Primed or numbered codes have the meaning given here. No end group written: not given here. FITC′ = not defined here
What was measured:
A549 cells [1] = assay: cell viability CCK-8 assay with GW4869; assay type: cell-based, human; conditions: various concentrations, 3 hours serum-free then 24 hours
[2] = tested on: exosome release of A549 cells; assay: inhibition of exosome release, western blotting of exosome markers; assay type: cell-based, human; conditions: 10 μM compared to 2.5 and 5 μM
Description: In order to further identify the binding specificity of ExoPep to exosomes, GW4869 ([…], Sigma-Aldrich), a drug that inhibits the release of exosome out of cells, was treated to cells at various concentrations (2.5, 5, and 10 μM). Thereafter, exosomes were isolated, and electrophoresis and western blotting with antibodies against CD63, Alix, Tsg101, and calnexin (Abcam) were performed in the same manner as described in FIG. 1.

A549 cells [3] = assay: internalization of exosomes and ExoPep after GW4869, immunofluorescence staining; assay type: cell-based, human; conditions: 10 μM GW4869
Description: Based on the above results, using 10 μM GW4869 inhibitor, the binding of the ExoPep peptide to the exosomes and internalization thereof were analyzed.

[4] = tested on: A549 tumor nude mouse model; assay: anticancer effect in the A549 tumor nude mouse model; assay type: in vivo
Description: To test anticancer effect using ExoPep-KLA in the A549 tumor nude mouse model, ExoPep-KLA peptides were pre-reacted with exosomes either alone or in vitro and then systemically administered intravenously for 3 weeks at the time points indicated in the protocol, and doxorubicin was administered once a week for 3 weeks (FIG. 14A).

[5] = tested on: A549 tumor nude mouse model; assay: co-administration of doxorubicin and ExoPep-KLA in the A549 tumor nude mouse model; assay type: in vivo
Description: In the A549 tumor nude mouse model, ExoPep-KLA peptide was administered three times a week at the indicated time points, and doxorubicin was administered once a week for three weeks. The timing of single and co-administration was shown in the treatment protocol (FIG. 16A).

[6] = tested on: exosomes derived from HepG2 liver cancer cells; assay: flow cytometry binding of FITC-labeled peptide to exosomes; conditions: 4° C.
From the text: (§1) 5 types of peptides (CTDTKIK, CRLSKKS, CRKVAKG, CRKRPAL, CAVRRKL) were synthesized based on the result of ELISA shown in FIG. 3. In order to investigate the binding of candidate peptides by FACS method, a peptide in which fluorescein isothiocyanate (FITC), a fluorescent substance, is conjugated to the carboxy terminus was synthesized by requesting Peptron Co. (Daegeon, Korea). Each peptide was synthesized by standard Fmoc method and purified by […]. In addition, FITC-labeled NSSSVDK peptide was used as a control.
(§2) In order to observe the peptide binding to the exosomes, biotin and exosomes were first combined in the same manner as described in FIG. 3, and then the exosomes were immobilized by binding with avidin beads. The exosome-bead complex was blocked for non-specific binding through treatment of 1% bovine serum albumin (BSA) dissolved in phosphate buffer for 30 minutes at room temperature. After washing, the FITC-labeled peptide was bound to the exosome-bead complex at 4° C. for 30 minutes. After the reaction, the binding of the peptide to the exosomes was analyzed using a flow cytometer.
(§3) On the other hand, in order to observe the peptide binding to the exosome-producing cells, 1×10^6 cells were first prepared. Each cell medium was treated with 1% BSA at 37° C. for 30 minutes. Thereafter, the FITC-labeled peptide was bound at 4° C. for 1 hour. After the reaction, the binding of the peptide to the cells was analyzed using a flow cytometer.

[7] = tested on: exosomes derived from MDA-MB231 breast cancer cells; assay: as above; conditions: 4° C.
From the text: as §1, §2, §3

[8] = tested on: exosomes derived from LLC mouse lung cancer cells; assay: as above; conditions: 4° C.
From the text: as §1, §2, §3

[9] = tested on: exosomes derived from normal HEK293 cells; assay: as above; conditions: 4° C.
From the text: as §1, §2, §3

[10] = tested on: exosomes derived from HT-29 colorectal cancer cells; assay: as above; conditions: 4° C.
From the text: as §1, §2, §3

[11] = tested on: exosomes derived from normal MCF10A cells; assay: as above; conditions: 4° C.
From the text: as §1, §2, §3

[12] = tested on: exosomes derived from H460 lung cancer cells; assay: as above; conditions: 4° C.
From the text: as §1, §2, §3

[13] = tested on: exosomes derived from Panc-1 pancreatic cancer cells; assay: as above; conditions: 4° C.
From the text: as §1, §2, §3

[14] = tested on: exosomes derived from A549 lung cancer cells; assay: as above; parameters: species or system human; conditions: 4° C.
From the text: as §1, §2
On the other hand, in order to observe the peptide binding to the exosome-producing cells, 1×10^6 cells were first prepared. […] After the reaction, the binding of the peptide to the cells was analyzed using a flow cytometer.

recipient cell A549 = assay: internalization of peptide with blood-derived exosomes into cells; assay type: cell-based, human; conditions: DiD-labeled exosomes, FITC-labeled peptide
Description: In order to observe internalization of peptides into cells, exosomes were labeled with DiD, reacted with FITC-labeled peptides, and treated to A549 cells. Cells were immobilized with 4% paraformaldehyde for 5 minutes and stained with DAPI, followed by observation under a microscope.

[15] = tested on: A549 cell-derived exosomes; assay: inhibition of exosome internalization by magnetic removal of peptide-bound exosomes; assay type: cell-based, human; conditions: exosomes pretreated with biotin-labeled peptide, then removed with magnet
Description: (§4) In order to further identify the binding specificity of the ExoPep peptide to the A549 cell-derived exosome, the exosomes were labeled with a DID fluorescent dye, reacted with the biotin-labeled ExoPep peptide, and then conjugated with biotin by reacting the labeled avidin with magnetic particles. The complex of exosomes/biotin-peptide/avidin-magnetic particles prepared by the reaction was captured and removed using a magnet, and the remaining exosomes were treated to recipient cells (FIG. 5A).

[16] = tested on: exosomes derived from normal HEK293 cells / HEK293 cells; assay: confocal microscopy of peptide internalization with exosomes; assay type: cell-based; conditions: same manner
Description: (§5) Media of A549, HEK293, and MDA-MB231 cells were collected, exosomes were isolated through ultracentrifugation, and exosomes were labeled with DiD fluorescence reagent (red), followed by a reaction with ExoPep peptide (FITC label, green). After the reaction, the cells were immobilized, and the nuclei were stained with DAPI (blue) to analyze with confocal microscopy. More specifically, the isolated exosomes and DiD (1:200 dilution) were reacted on a stirrer at 37° C. for 30 minutes. After adding Exoquick reagent, condition was maintained at 4° C. for 30 minutes, and then DiD-labeled exosomes were precipitated by centrifugation at 13000 rpm for 3 minutes. Thereafter, a mixture of 10 uM FITC-conjugated peptide and DiD-labeled exosomes was reacted with A549 cells at 37° C. for 1 hour. After washing three times, immobilization was performed using 2% paraformaldehyde (PFA). After washing again, cells were treated with 4′-6-diamidino-2-phenylindole (DAPI) for nucleus staining. Finally, after mounting, observation was followed using a confocal microscope (Zeiss, Oberkochen, Germany).
On the other hand, the exosomes derived from normal HEK293 cells were treated in the same manner as described above and observed under a confocal microscope (Zeiss, Oberkochen, Germany).

[17] = tested on: A549 cell-derived exosome / A549 cells; assay: as above; assay type: cell-based, human; conditions: 10 uM FITC-conjugated peptide, DiD-labeled exosomes, 37° C., 1 hour
Description: as §5

[18] = tested on: A549 tumor mouse blood-derived exosome; assay: flow cytometry binding of FITC-labeled ExoPep to blood-derived exosomes; conditions: FITC-labeled peptide, CD63 antibody beads
Description: A549 cells were injected into BALB/c nude mice, blood was collected after the tumor grew, and exosomes were isolated using an exosome isolation kit. To measure the binding of the peptide to the exosomes by flow cytometry, the exosomes were labeled with CD63 antibody beads. As a control group, exosomes isolated from the blood of normal mice were used. The exosome-bead complex labeled with CD63 beads was blocked by a reaction with 1% BSA/PBS at room temperature for 30 minutes to reduce non-specific binding. After washing, the FITC-labeled ExoPep peptides were bound to the exosome-bead complex at 4° C. for 30 minutes. After washing again with PBS, the binding of the peptide to the exosome-bead complex was analyzed using a flow cytometer (ThermoFisher Scientific, USA) (FIG. 7A).

[19] = tested on: exosomes derived from normal HEK293 cells; assay: inhibition of exosome internalization by magnetic removal of peptide-bound exosomes; assay type: cell-based; conditions: exosomes pretreated with biotin-labeled peptide, then removed with magnet
Description: as §4
On the other hand, internalization of exosomes into recipient cells was not reduced by pretreatment with the control peptide (sequence: NSSSVDK) (FIG. 5B). In addition, when a similar experiment was conducted on exosomes derived from normal HEK293 cells, the internalization of exosomes into recipient cells was not inhibited by the ExoPep peptide of an example embodiment of the present disclosure as well as the control peptide (FIG. 5C).

A549 tumor mice = assay: in vivo distribution imaging of DiD-labeled exosomes with or without ExoPep; parameters: species or system mouse; conditions: without exosomes
Description: DiD-labeled A549 tumor mouse blood-derived exosomes and A549 cell-derived exosomes were reacted with ExoPep peptide, and image monitoring was performed for in vivo distribution. Tumor xenograft mice were prepared by subcutaneously implanting A549 cell suspension (5×10^6 cells) along with PBS into the right flank of 5-week-old female BALB/c nude mice. When the tumor size reached a volume of approximately 100-200 mm^3, the mice were anesthetized. A549 tumor mice was intravenously administered with DiD-labeled A549 tumor mouse blood-derived exosomes (mEXO) and a product obtained by reacting the exosomes (mEXO) with peptides (mEXO+ExoPep, n=3) as well as DiD-labeled A549 cell-derived exosomes (cEXO) and a product obtained by reacting the exosomes (cEXO) with peptides (cEXO+ExoPep, n=3). The inventors of the present disclosure used FITC-labeled control peptide and ExoPep (n=3) as controls. In vivo fluorescence images were analyzed using an IVIS imaging system (Caliper Life Sciences, Massachusetts, USA) at various time points (2, 4, 8, and 24 hours, respectively) after administration of DiD-labeled exosomes. In vitro fluorescence images of excised tumors and organs were collected 24 hours after administration. All major organs (liver, kidney, spleen, heart, and lung) having tumor tissues were separated, washed with PBS, and subjected to in vitro fluorescence analysis (n=3).

red blood cells = assay: in vitro hemolysis assay; assay type: cell-based; conditions: various concentrations up to a final concentration of 200 μM, 37° C., 1 hour
Description: Next, an in vitro hemolysis assay was performed. In vitro hemolysis assay, as an indicator of hemolysis of red blood cells after exposure to a drug or an agent, was conducted by measuring the hemoglobin release in plasma. This is an accurate, sensitive method to predict the hemolytic activity of a drug. Fresh blood was centrifuged at 500×g for 10 minutes, and the pellet of red blood cells was washed 3 times and re-suspended in 10 mM PBS in pH 7.4. Equal volumes of red blood cells were reacted with various concentrations of ExoPep peptide by stirring at 37° C. for 1 hour. The samples were then centrifuged at 4° C. at 500×g for 10 minutes. RBC lysis was measured by analyzing absorbance at OD 540 nm depending on the concentration of different peptides. […] The hemolytic activity of the peptide was calculated in a percentage using the following equation.
H=100×(OP−OB)/(OT−OB) Equation:
In the equation above, OP, OB, and OT represent optical density of the peptide solution at an indicated concentration, optical density of a buffer, and optical density of Triton X 100, respectively.

[20] = tested on: MDA-MB231 cell-derived exosome / MDA-MB231 cells; assay: confocal microscopy of peptide internalization with CD63-GFP exosomes; assay type: cell-based; conditions: 10 uM TAMARA-conjugated peptide, 37° C., 1 hour
Description: In addition, an experiment was performed on exosomes derived from MDA-MB231 cells which were prepared to secrete exosomes showing green fluorescence by expressing CD63-GFP. GFP exosomes (green) and 10 uM TAMARA-conjugated peptide (red) were reacted with MDA-MB231 cells at 37° C. for 1 hour. Thereafter, after performing immobilization, DAPI nucleus staining, and mounting as described above, observation was followed using a confocal microscope (Zeiss, Oberkochen, Germany).

For `O=C(/C=C/c1ccc(/C=C/C(=O)Nc2ccc(C3=NCCN3)cc2)cc1)Nc1ccc(C2=NCCN2)cc1` [GW4869], the “cytotoxicity (CCK-8)” value (A549 cells [1]) was “did not show toxicity even at high concentration”, the “exosome markers such as CD63, Alix, and Tsg101” value [2] was “greatly reduced” and the “internalization of exosomes and peptides bound therewith” value (A549 cells [3]) was “significantly reduced”.

`COc1cccc2c1C(=O)c1c(O)c3c(c(O)c1C2=O)C[C@@](O)(C(=O)CO)C[C@@H]3O[C@H]1C[C@H](N)[C@H](O)[C@H](C)O1` [doxorubicin] was tested, and the tumor growth ([4]; intravenous, 3 weeks) was “significantly inhibited”, the weight of tumor ([4]; mouse, in vivo) was “reduced” and the size of tumor ([5]; 2.5 mg/kg, compared to phosphate buffer) was “slightly reduced”. For the same compound, the size of tumor ([5]; 5 mg/kg) was “more strongly inhibited” and the “metastatic nodules and microscopic nodules” value ([5]; 5 mg/kg, compared to buffer) was “significantly reduced”.

In the case of CRKVAKG [ExoPep], the “binding to exosomes compared to exosome-producing cell” value [6] is reported as “very low binding, or no higher binding”, the “binding to exosomes compared to exosome-producing cell” value [7] is reported as “higher binding” and the “binding to exosomes compared to exosome-producing cell” value [8] is reported as “very low binding, or no higher binding”. For the same compound, the “binding to exosomes compared to exosome-producing cell” value [9] was “very low binding, or no higher binding”, the “binding to exosomes compared to exosome-producing cell” value [10] was “very low binding, or no higher binding” and the “binding to exosomes compared to exosome-producing cell” value [11] was “very low binding, or no higher binding”. For the same compound, the “binding to exosomes compared to exosome-producing cell” value [12] was “higher binding”, the “binding to exosomes compared to exosome-producing cell” value [13] was “higher binding” and the “binding to exosomes compared to exosome-producing cell” value [14] was “higher binding”. For the same compound, the “internalization into recipient cell, tumor versus normal mouse blood-derived exosome” value (recipient cell A549) was “internalized more”, the “internalization of exosomes into recipient cells” value [15] was “significantly inhibited” and the “peptide observed in cells (internalization with exosomes)” value (“peptide observed in cells” for short) [16] was “not observed in the cells”. The “peptide observed in cells” value [17] was “observed along with the exosomes in A549 cells”, the “binding to tumor mouse blood-derived exosome versus normal mouse blood-derived exosome” value [18] was “bound better” and the “internalization of exosomes into recipient cells” value [19] was “not inhibited”. The “fluorescence signal of FITC-labeled peptide itself” value (A549 tumor mice) was “low signals”, the hemolytic activity (red blood cells) was “only low levels of hemolytic activity” and the “peptide observed in cells” value [20] was “more of which were observed in the cells than the control peptide”.

In the case of “NSSSVDK (NSSSVDK-{FITC′}) [control peptide, reference compound]”, the “internalization of exosomes into recipient cells” value [15] is reported as “not reduced”, the “peptide observed in cells” value [16] is reported as “not observed in the cells” and the “peptide observed in cells” value [17] is reported as “not observed”. The “internalization of exosomes into recipient cells” value [19] was “not inhibited” and the “fluorescence signal of FITC-labeled peptide itself” value (A549 tumor mice) was “low signals”.
